Columns and labels:
Adenosine receptor A2a = Adenosine receptor A2a (Homo sapiens, UniProt P29274)
[1] = target: Beta-2 adrenergic receptor (Homo sapiens, UniProt P07550)
Vasopressin V1a receptor = Vasopressin V1a receptor (Homo sapiens, UniProt P37288)
B2 bradykinin receptor = target: T1, B2 bradykinin receptor (Homo sapiens, UniProt P30411)
T1 sequence (P30411 whole entry): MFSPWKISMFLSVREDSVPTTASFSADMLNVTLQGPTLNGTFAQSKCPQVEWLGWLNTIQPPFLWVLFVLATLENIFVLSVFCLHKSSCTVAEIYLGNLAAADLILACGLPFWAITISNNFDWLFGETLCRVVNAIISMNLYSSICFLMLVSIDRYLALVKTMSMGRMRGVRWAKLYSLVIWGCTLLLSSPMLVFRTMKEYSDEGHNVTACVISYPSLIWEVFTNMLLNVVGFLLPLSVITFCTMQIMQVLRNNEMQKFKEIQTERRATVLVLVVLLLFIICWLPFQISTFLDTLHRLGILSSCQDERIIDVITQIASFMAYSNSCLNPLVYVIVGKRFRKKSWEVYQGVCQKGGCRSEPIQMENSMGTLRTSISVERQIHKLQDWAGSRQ

Cannabinoid receptor 1 = Cannabinoid receptor 1 (Homo sapiens, UniProt P21554)
[2] = target: T2, 5-hydroxytryptamine receptor 1A (Homo sapiens, UniProt P08908); format: functional, cell-based
T2 sequence (P08908 whole entry): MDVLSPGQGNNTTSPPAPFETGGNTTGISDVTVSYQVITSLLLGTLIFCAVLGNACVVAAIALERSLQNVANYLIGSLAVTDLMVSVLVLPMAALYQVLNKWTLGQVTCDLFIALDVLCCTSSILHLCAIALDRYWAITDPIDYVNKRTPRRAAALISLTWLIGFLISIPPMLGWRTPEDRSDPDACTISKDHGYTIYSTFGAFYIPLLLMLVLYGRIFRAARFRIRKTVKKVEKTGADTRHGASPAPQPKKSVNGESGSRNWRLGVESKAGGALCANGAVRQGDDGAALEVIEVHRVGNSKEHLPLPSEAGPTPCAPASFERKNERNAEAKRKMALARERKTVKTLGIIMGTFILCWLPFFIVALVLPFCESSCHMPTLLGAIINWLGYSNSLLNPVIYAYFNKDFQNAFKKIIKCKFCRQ

Melanocortin receptor 4 = Melanocortin receptor 4 (Homo sapiens, UniProt P32245)
[3] = target: 3',5'-cyclic-AMP phosphodiesterase 4D (Homo sapiens, UniProt Q08499); format: functional
[4] = target: T3, Muscarinic acetylcholine receptor M1 (Homo sapiens, UniProt P11229); format: functional
T3 sequence (P11229 whole entry): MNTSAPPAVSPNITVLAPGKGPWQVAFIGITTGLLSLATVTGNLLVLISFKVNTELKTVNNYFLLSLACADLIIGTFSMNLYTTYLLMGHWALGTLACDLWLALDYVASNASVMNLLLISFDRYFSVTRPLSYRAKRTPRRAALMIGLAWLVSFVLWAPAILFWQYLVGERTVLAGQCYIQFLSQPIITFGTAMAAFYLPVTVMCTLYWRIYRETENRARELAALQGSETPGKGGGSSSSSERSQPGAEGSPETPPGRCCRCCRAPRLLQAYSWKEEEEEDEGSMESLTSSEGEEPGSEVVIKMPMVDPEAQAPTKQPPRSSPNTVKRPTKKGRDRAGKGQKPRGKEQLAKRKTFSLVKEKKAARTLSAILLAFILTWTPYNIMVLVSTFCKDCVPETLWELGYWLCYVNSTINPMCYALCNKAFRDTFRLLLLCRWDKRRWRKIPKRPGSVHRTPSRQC

[5] = target: T4, Muscarinic acetylcholine receptor M2 (Homo sapiens, UniProt P08172); format: functional, cell-based
T4 sequence (P08172 whole entry): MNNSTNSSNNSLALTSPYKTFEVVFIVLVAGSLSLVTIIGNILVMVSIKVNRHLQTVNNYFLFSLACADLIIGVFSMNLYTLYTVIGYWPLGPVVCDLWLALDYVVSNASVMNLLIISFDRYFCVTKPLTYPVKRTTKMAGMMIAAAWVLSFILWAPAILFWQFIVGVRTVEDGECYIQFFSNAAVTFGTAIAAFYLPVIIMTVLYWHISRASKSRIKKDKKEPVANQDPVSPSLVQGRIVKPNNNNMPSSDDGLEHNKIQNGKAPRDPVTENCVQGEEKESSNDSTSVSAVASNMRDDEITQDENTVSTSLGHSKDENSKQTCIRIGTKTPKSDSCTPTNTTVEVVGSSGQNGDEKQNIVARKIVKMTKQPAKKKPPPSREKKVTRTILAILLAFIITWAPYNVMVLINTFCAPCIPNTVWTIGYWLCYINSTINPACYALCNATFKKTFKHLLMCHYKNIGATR

[6] = target: 5-hydroxytryptamine receptor 2A (Homo sapiens, UniProt P28223); format: functional, cell-based
Mu-type opioid receptor = Mu-type opioid receptor (Homo sapiens, UniProt P35372); assay: biochemical; format: functional
Also: assay procedure not described here.

Chain of Beta-2 adrenergic receptor (P07550 whole entry): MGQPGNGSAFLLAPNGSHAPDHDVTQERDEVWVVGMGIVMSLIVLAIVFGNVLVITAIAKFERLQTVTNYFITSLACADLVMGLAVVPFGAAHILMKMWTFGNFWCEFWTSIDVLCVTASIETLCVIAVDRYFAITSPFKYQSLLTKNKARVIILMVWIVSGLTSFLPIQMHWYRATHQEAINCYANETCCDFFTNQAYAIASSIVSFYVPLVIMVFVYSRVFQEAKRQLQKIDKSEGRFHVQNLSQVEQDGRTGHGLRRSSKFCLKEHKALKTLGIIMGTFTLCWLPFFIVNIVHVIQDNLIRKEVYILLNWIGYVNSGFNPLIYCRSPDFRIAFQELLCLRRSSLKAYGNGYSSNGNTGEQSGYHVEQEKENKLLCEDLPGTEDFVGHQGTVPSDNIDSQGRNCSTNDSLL
Chain of 3',5'-cyclic-AMP phosphodiesterase 4D (Q08499 whole entry): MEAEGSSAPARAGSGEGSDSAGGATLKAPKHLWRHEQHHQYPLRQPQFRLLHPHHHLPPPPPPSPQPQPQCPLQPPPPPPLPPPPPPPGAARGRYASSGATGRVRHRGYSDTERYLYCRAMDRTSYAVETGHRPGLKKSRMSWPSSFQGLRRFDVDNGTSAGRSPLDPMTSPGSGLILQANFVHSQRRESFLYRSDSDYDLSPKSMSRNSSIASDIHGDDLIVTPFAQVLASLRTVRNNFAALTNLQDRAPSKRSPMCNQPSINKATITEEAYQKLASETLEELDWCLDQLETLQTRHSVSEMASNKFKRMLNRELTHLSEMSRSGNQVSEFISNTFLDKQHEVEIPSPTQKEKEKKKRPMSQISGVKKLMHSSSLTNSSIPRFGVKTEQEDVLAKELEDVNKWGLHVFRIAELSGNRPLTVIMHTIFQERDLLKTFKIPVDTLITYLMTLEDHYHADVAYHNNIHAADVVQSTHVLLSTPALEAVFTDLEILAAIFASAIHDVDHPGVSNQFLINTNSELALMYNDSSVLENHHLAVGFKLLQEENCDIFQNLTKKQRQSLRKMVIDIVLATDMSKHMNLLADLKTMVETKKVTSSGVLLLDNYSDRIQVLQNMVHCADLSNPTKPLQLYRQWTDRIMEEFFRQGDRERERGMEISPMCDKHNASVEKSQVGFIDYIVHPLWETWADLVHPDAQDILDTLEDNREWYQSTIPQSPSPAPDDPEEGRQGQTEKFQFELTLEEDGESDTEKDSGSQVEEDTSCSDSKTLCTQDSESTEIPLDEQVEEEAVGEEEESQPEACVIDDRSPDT
Chain of Vasopressin V1a receptor (P37288 whole entry): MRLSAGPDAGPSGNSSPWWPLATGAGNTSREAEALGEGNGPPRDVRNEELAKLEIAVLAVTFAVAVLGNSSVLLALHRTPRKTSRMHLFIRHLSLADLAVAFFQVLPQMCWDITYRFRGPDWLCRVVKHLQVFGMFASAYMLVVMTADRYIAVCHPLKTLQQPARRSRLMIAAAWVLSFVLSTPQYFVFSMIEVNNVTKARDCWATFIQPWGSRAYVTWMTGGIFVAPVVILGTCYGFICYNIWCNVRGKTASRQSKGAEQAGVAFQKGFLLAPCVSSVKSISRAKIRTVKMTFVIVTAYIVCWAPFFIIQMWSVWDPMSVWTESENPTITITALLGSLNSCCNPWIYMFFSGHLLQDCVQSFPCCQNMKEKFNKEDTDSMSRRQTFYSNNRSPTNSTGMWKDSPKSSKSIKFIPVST
Chain of Adenosine receptor A2a (P29274 whole entry): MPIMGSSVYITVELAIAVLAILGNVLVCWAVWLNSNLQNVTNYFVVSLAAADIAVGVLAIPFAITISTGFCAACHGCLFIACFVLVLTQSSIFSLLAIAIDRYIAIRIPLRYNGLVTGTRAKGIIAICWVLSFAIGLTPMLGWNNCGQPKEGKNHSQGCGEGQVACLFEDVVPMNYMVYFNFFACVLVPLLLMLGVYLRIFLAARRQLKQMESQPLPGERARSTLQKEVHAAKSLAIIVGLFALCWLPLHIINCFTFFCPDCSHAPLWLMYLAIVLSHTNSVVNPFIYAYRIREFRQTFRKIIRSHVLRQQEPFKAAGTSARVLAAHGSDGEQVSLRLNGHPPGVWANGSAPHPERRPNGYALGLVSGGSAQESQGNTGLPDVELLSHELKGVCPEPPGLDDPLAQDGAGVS
Chain of 5-hydroxytryptamine receptor 2A (P28223 whole entry): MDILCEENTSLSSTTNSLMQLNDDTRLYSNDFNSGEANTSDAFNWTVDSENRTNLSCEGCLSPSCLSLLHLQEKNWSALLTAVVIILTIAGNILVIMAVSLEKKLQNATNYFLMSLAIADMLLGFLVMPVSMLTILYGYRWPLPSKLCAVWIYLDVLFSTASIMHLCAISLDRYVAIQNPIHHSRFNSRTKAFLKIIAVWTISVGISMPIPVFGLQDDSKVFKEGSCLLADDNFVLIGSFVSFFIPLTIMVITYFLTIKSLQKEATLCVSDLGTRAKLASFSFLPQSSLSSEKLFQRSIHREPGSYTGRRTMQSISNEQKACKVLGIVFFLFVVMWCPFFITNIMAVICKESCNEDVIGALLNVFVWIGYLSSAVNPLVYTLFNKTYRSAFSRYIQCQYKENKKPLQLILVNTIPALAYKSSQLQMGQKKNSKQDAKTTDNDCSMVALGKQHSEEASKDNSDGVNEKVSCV
Chain of Cannabinoid receptor 1 (P21554 whole entry): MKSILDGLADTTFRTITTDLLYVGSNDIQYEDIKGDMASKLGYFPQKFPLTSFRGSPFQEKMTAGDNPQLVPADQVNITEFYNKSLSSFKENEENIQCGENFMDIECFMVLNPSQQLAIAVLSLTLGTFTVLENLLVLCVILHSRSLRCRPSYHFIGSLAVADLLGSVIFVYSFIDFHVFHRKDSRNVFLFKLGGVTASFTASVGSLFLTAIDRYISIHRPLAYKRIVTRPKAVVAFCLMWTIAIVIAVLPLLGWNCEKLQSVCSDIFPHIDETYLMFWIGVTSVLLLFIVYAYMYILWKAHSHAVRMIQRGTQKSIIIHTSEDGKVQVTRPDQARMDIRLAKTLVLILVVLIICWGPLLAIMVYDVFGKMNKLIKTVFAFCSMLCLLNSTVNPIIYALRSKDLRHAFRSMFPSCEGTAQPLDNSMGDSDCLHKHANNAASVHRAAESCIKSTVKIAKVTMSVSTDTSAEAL
Chain of Melanocortin receptor 4 (P32245 whole entry): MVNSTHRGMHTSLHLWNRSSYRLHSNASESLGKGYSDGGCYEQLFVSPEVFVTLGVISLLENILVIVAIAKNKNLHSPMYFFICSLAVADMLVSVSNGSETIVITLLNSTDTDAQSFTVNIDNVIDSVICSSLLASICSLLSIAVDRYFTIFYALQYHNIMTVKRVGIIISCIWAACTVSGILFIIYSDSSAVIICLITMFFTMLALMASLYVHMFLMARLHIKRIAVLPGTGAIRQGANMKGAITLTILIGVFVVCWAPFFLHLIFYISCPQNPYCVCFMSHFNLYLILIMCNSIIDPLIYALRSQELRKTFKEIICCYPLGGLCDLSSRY
Chain of Mu-type opioid receptor (P35372 whole entry): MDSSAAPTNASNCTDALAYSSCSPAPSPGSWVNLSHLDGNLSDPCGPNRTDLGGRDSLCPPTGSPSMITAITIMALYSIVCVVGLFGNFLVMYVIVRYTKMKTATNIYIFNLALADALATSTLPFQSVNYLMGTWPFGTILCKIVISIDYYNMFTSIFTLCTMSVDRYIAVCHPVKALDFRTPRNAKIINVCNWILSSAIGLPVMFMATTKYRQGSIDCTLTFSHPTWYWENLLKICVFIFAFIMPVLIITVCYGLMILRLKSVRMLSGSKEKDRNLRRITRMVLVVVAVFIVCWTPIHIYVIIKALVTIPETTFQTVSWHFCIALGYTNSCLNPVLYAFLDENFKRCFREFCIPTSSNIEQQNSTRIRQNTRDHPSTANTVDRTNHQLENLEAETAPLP

| SMILES | AC50 (Adenosine receptor A2a) [µM] | AC50 [1] [µM] | AC50 (Vasopressin V1a receptor) [µM] | AC50 (B2 bradykinin receptor) [µM] | AC50 (Cannabinoid receptor 1) [µM] | AC50 [2] [µM] | AC50 (Melanocortin receptor 4) [µM] | AC50 [3] [µM] | AC50 [4] [µM] | AC50 [5] [µM] | AC50 [6] [µM] | AC50 (Mu-type opioid receptor) [µM] |
| --- | --- | --- | --- | --- | --- | --- | --- | --- | --- | --- | --- | --- |
| NCCCC(O)(P(=O)(O)O)P(=O)(O)O [ALENDRONIC ACID] | > 30 | > 10 | > 10 | > 30 | > 10 | > 10 | > 30 | > 30 | – | – | – | – |
| CC(=O)OCC(=O)[C@@]1(O)CC[C@H]2[C@@H]3CCC4=CC(=O)CC[C@]4(C)C3=CC[C@@]21C [ANECORTAVE ACETATE] | > 10 | > 10 | > 10 | > 10 | > 10 | – | > 10 | > 30 | > 10 | > 10 | > 10 | – |
| NS(=O)(=O)c1cc2c(cc1C(F)(F)F)NC(Cc1ccccc1)NS2(=O)=O (centres undefined) [BENDROFLUMETHIAZIDE] | > 10 | > 10 | > 10 | > 10 | > 10 | > 10 | > 10 | > 30 | > 10 | > 10 | > 10 | – |
| CCCC(C)(COC(N)=O)COC(=O)NC(C)C (centres undefined) [CARISOPRODOL] | > 30 | > 10 | > 10 | > 30 | > 10 | > 10 | > 30 | > 30 | > 10 | > 10 | > 30 | – |
| CC(C)(C)NCC(O)c1cc(Cl)c(N)c(Cl)c1 (centres undefined) [CLENBUTEROL] | > 30 | – | – | > 30 | > 30 | > 30 | > 30 | > 30 | – | > 30 | – | > 30 |
| N[C@H](Cc1cc(I)c(Oc2cc(I)c(O)c(I)c2)c(I)c1)C(=O)O [DEXTROTHYROXINE] | > 30 | > 10 | > 30 | > 30 | > 10 | 8.2 | > 30 | 0.26 | > 10 | > 10 | – | – |
| Clc1ccc2c(c1)C(c1ccccc1)=NCc1nncn1-2 [ESTAZOLAM] | > 30 | > 10 | > 30 | > 30 | – | > 10 | > 30 | 10 | > 10 | > 10 | – | – |
| CC(=O)OCC(CCn1cnc2cnc(N)nc21)COC(C)=O [FAMCICLOVIR] | > 30 | > 10 | > 10 | > 30 | > 10 | > 10 | > 30 | > 30 | – | > 10 | – | – |
| Clc1ccc(C(Cn2ccnc2)OCc2ccc(Sc3ccccc3)cc2)c(Cl)c1 (centres undefined) [FENTICONAZOLE] | > 30 | > 30 | > 30 | > 30 | 11 | – | – | 18 | > 30 | > 30 | – | > 30 |
| Nc1ccn([C@@H]2O[C@H](CO)[C@@H](O)C2(F)F)c(=O)n1 [GEMCITABINE] | > 30 | > 30 | > 30 | > 30 | – | > 10 | > 30 | 16 | – | > 10 | – | – |
| COC1=C(OC)C(=O)C(CCCCCCCCCCO)=C(C)C1=O [IDEBENONE] | > 30 | > 10 | > 10 | > 30 | > 10 | > 10 | > 30 | > 10 | – | > 10 | – | – |
| CC#CCn1c(N2CCC[C@@H](N)C2)nc2c1c(=O)n(Cc1nc(C)c3ccccc3n1)c(=O)n2C [LINAGLIPTIN] | > 30 | > 10 | > 30 | > 30 | > 10 | – | 41.8 | > 10 | > 10 | – | – | – |
| CC(=O)Nc1c(I)c(C(=O)N[C@H]2C(O)O[C@H](CO)[C@@H](O)[C@@H]2O)c(I)c(N(C)C(C)=O)c1I (some centres undefined) [METRIZAMIDE] | > 10 | > 10 | > 10 | > 10 | > 10 | > 10 | > 10 | > 30 | > 10 | > 10 | > 10 | – |
| O=C1CN=C(c2ccccc2)c2cc(Cl)ccc2N1 [NORDAZEPAM] | > 30 | > 10 | > 10 | > 30 | > 10 | > 10 | > 30 | 12 | > 10 | > 10 | – | – |
| CC(CCc1ccccc1)NC(C)C(O)c1ccc(O)cc1 (centres undefined) [NYLIDRIN] | > 30 | 0.218 | > 10 | > 30 | > 10 | 12 | > 30 | > 30 | > 10 | > 10 | > 30 | – |
| O=C1Nc2ccc(Cl)cc2C(c2ccccc2)=NC1O (centres undefined) [OXAZEPAM] | > 30 | > 10 | > 10 | > 30 | > 10 | > 10 | > 30 | > 10 | > 10 | > 10 | > 30 | – |
| CC(C)CC(N(C)C)C1(c2ccc(Cl)cc2)CCC1 (centres undefined) [SIBUTRAMINE] | > 30 | > 10 | > 10 | > 30 | > 10 | > 10 | > 30 | > 30 | – | > 30 | – | > 30 |
| [H]/N=C(/N)N[C@H]1[C@H](O)[C@@H](O)[C@H](O[C@@H]2O[C@@H](C)[C@](O)(C=O)[C@H]2O[C@@H]2O[C@@H](CO)[C@H](O)[C@@H](O)[C@@H]2NC)[C@@H](N/C(N)=N\[H])[C@@H]1O [STREPTOMYCIN] | > 30 | > 30 | > 30 | > 30 | > 30 | > 10 | > 30 | > 30 | – | > 30 | – | > 30 |
| Cc1cccc(N(C)C(=S)Oc2ccc3ccccc3c2)c1 [TOLNAFTATE] | > 10 | > 10 | – | > 10 | > 10 | > 10 | > 10 | > 30 | – | > 10 | – | > 30 |
| COc1ccc(C(CN(C)C)C2(O)CCCCC2)cc1 (centres undefined) [VENLAFAXINE] | > 30 | > 10 | – | > 30 | 5.5 | – | > 30 | > 10 | – | > 10 | – | – |
| C=CC(N)CCC(=O)O (centres undefined) [VIGABATRIN] | > 10 | > 10 | > 10 | > 10 | > 10 | – | > 10 | > 30 | > 10 | > 10 | > 10 | – |

Source: ChEMBL document CHEMBL5291721, “A preclinical secondary pharmacology resource illuminates target-adverse drug reaction associations of marketed drugs” (Nat Commun, 2023)
